Laboratory results taken from patent US8691183B2, “Means for the detection and treatment of prostate cells” (Eberhard-Karls-Universitaet Tuebingen Universitaetsklinikum, priority 2008, dated 2014).
“Also recorded” adds a separate entry of the source.

Key:
[1] = tested on: PC-3 prostate carcinoma cells; experiment: Fluorescence activated cell sorting (FACS) of cellular uptake; format: cell-based, human; conditions: 20 minutes incubation
Protocol: (§1) For the fluorescence activated cell sorting (FACS), cells were grown in 75 cm^2 culture flasks (Corning Costar, Bodenheim, Germany) (80% confluency) under the same conditions as described for the confocal laser scanning microscopy. Accutase™ (PAA Laboratories, Pasching, Austria) was added to achieve detachment of the cells, which were harvested and subsequently alequoted into Eppendorf tubes (Eppendorf, Hamburg, Germany) (1×10^6 cells per tube). The cells were incubated for 20 minutes with the compounds 1, 2 and 4 (10 μg/ml in the appropriate medium with 1% ethanol) and the compound 10 (130 μM in the appropriate medium).
(§2) Afterwards, the cells were washed three times in PBS and centrifuged at 800 rpm for 5 minutes. Then 300 μl FACS buffer (D-PBS containing 1% parafomaldehyde) were added. The samples were measured immediately. Approximately 20,000 events were recorded per sample. The fluorescence excitation was achieved by an argon laser (488 nm). The fluorescence was detected using a 580-610 and a 560-680 nm band-pass filter. All investigations were performed in triplicate.
(§3) Mean rhodamine and fluorescein isothiocyanate fluorescence values of the samples were acquired using the WinMDI software (Joseph Trotter, Scripps Research Institute, San Diego, Calif., USA) and then statistically evaluated.

[2] = tested on: non-prostate tumor cell lines; experiment: as above; format: cell-based, human; conditions: 20 minutes incubation
Protocol: as §1, §2, §3

[3] = tested on: LNCaP prostate carcinoma cells; experiment: In-vitro MRT / MR relaxometry of cells in Eppendorf tubes; format: cell-based, human; conditions: for uptake / signal intensity of the cells in T1-weighted MRT images: 20 minutes incubation, washed, 130 μM
Protocol: (§4) For the MR relaxometry, all tumor cell lines were grown in 75 cm^2 culture flasks (Corning Costar, Bodenheim, Germany) (70% confluency). Accutase™ (PAA Laboratories, Pasching, Austria) was added to achieve detachment of the cells, which were harvested and subsequently aliquoted into Eppendorf tubes (6×10^6 cells per tube). The cells in the tubes were incubated with the DOTA-containing compounds (130 μM). After a 20 minutes incubation period at 37° C. in an atmosphere of 5% CO2, the cells were washed three times in PBS and centrifuged at 800 rpm for 5 minutes.
(§5) The in-vitro MRT was performed with a 3 Tesla-whole body MRT system (Magnetom TRIO, circular polarized wrist coil, Siemens, Erlangen, Germany)
(§6) Sagittal T1-weighted MR images were obtained using the following spin-echo sequence:
(§7) Repetition time (TR): 200 ms, echo time (TE): 7,4 ms, flip angle: 90°, averages: 1, concatenations: 2, measurements: 1, number of slices: 19, distance factor: 30%, slice thickness: 3 mm, field of view read: 180 mm/100%, resolution: 256/100%, voxel size: 0.7×0.7×3.0 mm, scan time: 1:48 min.
(§8) The T1 relaxation times were evaluated from signal intensities obtained by multiple spin-echo measurements:
(§9) Repetition time (TR): 20-8000 ms (50 different TR values), echo time (TE): 6.4 ms, flip angle: 90°, averages: 1, measurements: 1, number of slices: 1, slice thickness: 1 mm, field of view read: 120 mm/87.5%, resolution: 128/100%, voxel size: 0.9×0.9×1 mm.
(§10) The analysis and calculations were performed using a Matlab program (Math Works, Natick, Mass., USA). The T1 values were approximated by a three-parameter fit procedure. All signal curves were examined and found to be monoexponential. The investigations were performed in triplicate.

[4] = tested on: other tumor cell lines (non-prostate); experiment: as above; format: cell-based, human; conditions: other carcinoma cells; incubation, washed three times with PBS
Protocol: as §4, §5, §6, §7, §8, §9, §10

[5] = tested on: seven human tumor cell lines and healthy human epithelial prostate cells (CC2555); experiment: Confocal laser scanning microscopy (CLSM) of cellular uptake, all cell types; format: cell-based; conditions: corresponding amount of free dye, 20 minutes
Protocol: (§11) The cells were grown to 80% confluency at 37° C., 5% CO2 (vol/vol) in 4-well plates (NUNC, Wiesbaden, Germany) with about 300,000 cells per well.
(§12) U373 human glioma cells, human prostate carcinoma cells PC3 and LNCaP, human Jurkat lymphoma cells, and human colon carcinoma cells Colo205 were grown in RPMI1640 ready mix medium containing L-glutamine and 10% fetal bovine serum (FBS)-gold (PAA Laboratories, Pasching, Austria). U2OS human osteosarcoma cells and HeLa human cervix carcinoma cells were grown in high glucose Dulbeccos modified Eagle's medium containing GlutaMax™ and pyrovate and 10% FBS-gold. Healthy human prostate cells (CC2555, Lonza, Verviers, Belgium) were cultivated in prostate endothelial cell growth medium (PrEGM, Lonza, Verviers, Belgium).
The compounds 1, 2 and 4 were dissolved at 1 mg/ml in pure ethanol (Riedel de Haen, Sigma-Aldrich, Taufkirchen, Germany) and then diluted in the appropriate medium for the cells to 10 μg/ml of conjugate and 1% ethanol. The cells were incubated at 37° C. in an atmosphere of 5% CO2 for 20 minutes with the compounds. […]
(§13) The confocal laser scanning microscopy was performed on an inverted LSM510 laser scanning microscope (Carl Zeiss) (objective: LD Achroplan 40×0.6, Plan Neofluar 20×0.50, 40×0.75). For the rhodamine fluorescence excitation the 543 nm beam of a helium-neon laser with suitable beam splitters and barrier filters were used. […]

[6] = tested on: LNCaP prostate carcinoma cells; experiment: Confocal laser scanning microscopy (CLSM) of cellular uptake; format: cell-based, human; conditions: 20 minutes incubation, 10 μg/ml
Protocol: as §11, §12
(§14) The compounds 1, 2 and 4 were dissolved at 1 mg/ml in pure ethanol (Riedel de Haen, Sigma-Aldrich, Taufkirchen, Germany) and then diluted in the appropriate medium for the cells to 10 μg/ml of conjugate and 1% ethanol. The cells were incubated at 37° C. in an atmosphere of 5% CO2 for 20 minutes with the compounds. After this, the cells were rinsed three times with medium and then incubated with medium again. This experiment was also performed with free sulforhodamine B with a corresponding amount.
(§15) The confocal laser scanning microscopy was performed on an inverted LSM510 laser scanning microscope (Carl Zeiss) (objective: LD Achroplan 40×0.6, Plan Neofluar 20×0.50, 40×0.75). For the rhodamine fluorescence excitation the 543 nm beam of a helium-neon laser with suitable beam splitters and barrier filters were used. All measures were performed at least three times on living, non-fixed cells.

[7] = tested on: colon carcinoma cells (Colo205); experiment: as above; format: cell-based, human; conditions: 20 minutes incubation, 10 μg/ml
Protocol: as §11, §12, §14, §15

[8] = tested on: PC-3 prostate carcinoma cells; experiment: as above; format: cell-based, human; conditions: 20 minutes incubation, 260 μM
Protocol: as §11, §12, §14
The compound 10 was dissolved in culture medium (260 μM). Lys(FITC)-aminobourgeonal (compound 7) was dissolved in culture medium with 1% ethanol (260 μM). The cells were incubated for 20 minutes (compound 10) and for 2 days (compounds 7 and 10). This assay was also performed with free FITC. After the incubation the cells were rinsed three times with medium and again incubated in medium. Propidium iodide (PI) (molecular probes, Eugene, Oreg., USA) was added to stain death cells.
as §13

[9] = tested on: osteosarcoma cells (U2OS); experiment: as above; format: cell-based, human; conditions: 20 minutes incubation, 260 μM
Protocol: as §11, §12
The compound 10 was dissolved in culture medium (260 μM). Lys(FITC)-aminobourgeonal (compound 7) was dissolved in culture medium with 1% ethanol (260 μM). The cells were incubated for 20 minutes (compound 10) and for 2 days (compounds 7 and 10). This assay was also performed with free FITC. […]
as §13

[10] = tested on: LNCaP prostate carcinoma cells; experiment: Fluorescence activated cell sorting (FACS) of cellular uptake; format: cell-based, human; conditions: 20 minutes incubation, 130 μM
Protocol: as §1, §2, §3

[11] = tested on: healthy prostate cells (CC2555); experiment: as above; format: cell-based, human; conditions: 20 minutes incubation, 130 μM
Protocol: as §1, §2, §3

[12] = tested on: PC-3 prostate carcinoma cells; experiment: In-vitro MRT / MR relaxometry of cells in Eppendorf tubes; format: cell-based, human; conditions: rank among cell lines
Protocol: as §4, §5, §6, §7, §8, §9, §10

[13] = tested on: healthy prostate cells (CC2555); experiment: as above; format: cell-based, human; conditions: rank among cell lines
Protocol: as §4, §5, §6, §7, §8, §9, §10

[14] = tested on: human PC3 prostate carcinoma in the right thigh of a nude mouse; experiment: Magnetic resonance tomography of nude mouse with implanted tumor; format: in vivo; conditions: 90 minutes after intravenous administration
Protocol: PC3 and LNCaP prostate tumor cells were grown to 80% confluency, detached with Accutase™ (PAA Laboratories, Pasching, Austria) and then harvested. The cells were washed with PBS three times and then drawn up into a 30 g Micro-Fine™ insulin syringe (Becton Dickinson, Franklin Lakes, N.J., USA). Approximately 5×10^5 cells per mouse were injected into the right thigh of a male CD1 Nu/Nu mouse (Charles River, WIGA, Sulzfeld, Germany). The tumor growth was monitored and after 10 to 14 days mice bearing tumors with 2-3 mm in diameter were treated with the conjugate. 1.5 mg of the compound 1 were dissolved in 300 μl PBS containing 20% ethanol and applied intraperitoneally. […] Frozen sections (5 μm thickness) were prepared (LD3000 Cryotom, Leica Biosystems GmbH, Nussloch, Germany) and the rhodamine staining was analyzed by confocal laser scanning
The magnetic resonance tomography (MRT) measurements were performed using a clinical 3-Tesla Siemens whole body MRT (Magnetom TRIO; Siemens, Erlangen, Germany) with the mice in prone position in a standard circular polarized wrist coil. The MRT protocol consisted of native and post-contrast T1 weighted axial images: slice thickness 2 mm, field of view read: 60 mm/7.5%, Voxel size: 0.2×0.2×2 mm, repetition time (TR): 800 ms, echo time (TE): 9.1 ms, flip angle: 90°, acquisitions: tions: 2, number of slices: 25, distance factor: 0, scan time 06:02 min. […]

`CCN(CC)c1ccc2c(-c3ccc(S(=O)(=O)NCCC(=O)NCCCCCCCC=O)cc3S(=O)(=O)O)c3ccc(=[N+](CC)CC)cc-3oc2c1` [compound 4, sulforhodamine-sulfonamido βala-aminooctanal] was tested, and the “fluorescence (rhodamine, FACS)” value ([1]; PC3, 10 μg/ml) was “highest fluorescence” and the “fluorescence (rhodamine, FACS)” value ([2]; remaining carcinoma cell lines, 10 μg/ml) was “only show little staining”.
In the case of `O=C([O-])CN1CCN(CC(=O)[O-])CCN(CC(=O)O)CCN(CC(=O)[O-])CC1.[Gd+3]` [Gd-DOTA, reference compound], the “uptake / signal intensity of the cells in T1-weighted MRT images” value ([3]; LNCaP) is reported as “not taken up by the prostate carcinoma cells; also recorded: remain dark” and the “signal intensity of the cells in T1-weighted MRT images” value [4] is reported as “remain dark”.
With sulforhodamine B the “uptake by any cell type (rhodamine staining, CLSM)” value [5] was “not taken up by any cell types”.
With `CCN(CC)c1ccc2c(-c3ccc(S(=O)(=O)NCCC(=O)Nc4ccc(/C=C\C=O)cc4)cc3S(=O)(=O)[O-])c3ccc(=[N+](CC)CC)cc-3oc2c1` [compound 2, Sulforhodamine-Sulfonamido βAla-Aminocinnamaldehyde] the “uptake into the cells (rhodamine staining, CLSM)” value [6] was “significantly stained” and the “uptake into the cells (rhodamine staining, CLSM)” value [7] was “basically unstained”.
In the case of “fluorescein isothiocyanate [FITC, reference compound]”, the “uptake into the cells (FITC staining, CLSM)” value [8] is reported as “not uptaken by the cells” and the “uptake into the cells (FITC staining, CLSM)” value [9] is reported as “not uptaken by the cells”.
With `O=CCCCCCCCCCCNC(=O)C(CCCCN=S=C=Nc1ccc2c(c1)C(=O)OC21c2ccc(O)cc2Oc2cc(O)ccc21)NC(=O)C[N+]12CC[N+]3(CC(=O)O)CCN(CC(=O)O)CC[N+](CC(=O)O)(CC1)[Gd]32` (centres unmarked) [compound 10, Gd-DOTA-Lys(FITC) aminoundecylic aldehyde] the “uptake into the cells (FITC staining, CLSM)” value [8] was “very well uptaken into the cytoplasm”, the “uptake into the cells (FITC staining, CLSM)” value [9] was “not into the osteosarcoma cells” and the “staining (FITC fluorescence, FACS)” value [10] was “stained”. For the same compound, the “staining (FITC fluorescence, FACS)” value ([1]; PC-3, 130 μM) was “stained”, the “staining (FITC fluorescence, FACS)” value [11] was “stained” and the “staining (FITC fluorescence, FACS)” value ([2]; non-prostate tumor cell lines, 130 μM) was “not the non-prostate tumor cell lines”. For the same compound, the “uptake / signal intensity of the cells in T1-weighted MRT images” value ([3]; LNCaP) was “uptaken into the cytoplasm of the prostate carcinoma cells; also recorded: increase of the signal intensity”, the “difference of the T1-time (before minus after the incubation)” value ([3]; LNCaP, rank among cell lines) was “strongest reduction of the T1-time” and the “T1-time reduction in comparison to simple Gd-DOTA” value ([3]; prostate carcinoma cells (LNCaP)) was “significantly stronger T1-time reduction”. For the same compound, the “difference of the T1-time (before minus after the incubation)” value [12] was “strongest reduction of the T1-time”, the “difference of the T1-time (before minus after the incubation)” value [13] was “strongest reduction of the T1-time” and the “signal intensity of the cells in T1-weighted MRT images” value [4] was “only with the LNCaP-prostate carcinoma cells”. For the same compound, the “MRT staining of non-prostate carcinoma cells” value [14] was “remain unstained” and the “MRT signal of the prostate carcinoma cells” value ([14]; 10 days after implantation) was “increased signal intensity”.
